Data reported in patent US7217527B2, “Assay for phosphodiesterase function” (Vanderbilt University, priority 2003, dated 2007).

What was measured:
crude human lung extract = molecular target: T1, crude human lung extract (Homo sapiens, UniProt O76074); test: [^3H]sildenafil binding in DEAE-Sephacel fractions of crude human lung extract (FIG. 5); settings: 16 nM [^3H]sildenafil
T1 construct: from tissue; host or cells: human lung (explanted lung of transplant patients), supernatant fractionated on DEAE-Sephacel
Method: 5 g human lung was thawed, cut into small pieces and homogenized in 80 ml 2.5 mM potassium phosphate (pH 6.8) containing 0.25 mM EDTA, 0.025 mM IBMX, 4 mM β-mercaptoethanol, and 1 mM CaCl2 with a Cuisinart apparatus (high speed) using 3 bursts of 15 sec each at 4° C. After centrifugation in a Beckman JA-20 rotor for 30 min at 10,000×g, 72 ml supernatant was applied to a DEAE-Sephacel column (0.9×10 cm) equilibrated in KPM and the column was washed with 20 ml of KPM containing 20 mM NaCl and 1 mM CaCl2. The column was developed with a linear (20–280 mM) NaCl gradient in KPM containing 1 mM CaCl2. […] PKG activity was determined in the presence of 2 μM cGMP as described in Materials and Methods.

[1] = molecular target: T2, isolated regulatory domain of PDE5 (Homo sapiens, UniProt O76074); format: binding
T2 construct: made in house
Method: Reactions were incubated on an ice water bath for 20 min. […] Tubes were each rinsed with 3 ml of the same buffer and filtered. The filter membranes were removed and placed into slots of a scintillation vial box for subsequent drying. The vial box was placed into a glassware dryer for 10 min, and dried papers were transferred to 6 ml scintillation vials. Five ml non-aqueous scintillant was added, and papers were counted in a scintillation counter.

PDE5 = PDE5 (Homo sapiens, UniProt O76074); settings: read-out: Km for the catalytic site; cited from earlier work
GAF domains of PDE5 = GAF domains of PDE5 (Homo sapiens, UniProt O76074); settings: cited from earlier work
[2] = test system: second peak of cGMP PDE activity (human lung extract); settings: 40 pmol/ml sildenafil; 0.4 μM [^3H]cGMP substrate
Method: PKG activity was determined in the presence of 2 μM cGMP as described in Materials and Methods.
PDE activity was determined by a modified assay (Martins et al., 1982) as described earlier (Gopal et al., 2001) using 0.4 μM [^3H]cGMP as substrate. PKG activity was determined in the presence of 2 μM cGMP as described (Gopal et al., 2001).

CCCc1nn(C)c2c(=O)[nH]c(-c3cc(S(=O)(=O)N4CCN(C)CC4)ccc3OCC)nc12 [[^3H]sildenafil]
[^3H]sildenafil-binding activity other than the PDE5 peak (crude human lung extract): no other significant peak | binding to isolated regulatory domain of PDE5 [1]: did not detectably bind

Nc1nc2c(ncn2[C@@H]2O[C@@H]3COP(=O)(O)O[C@H]3[C@H]2O)c(=O)[nH]1 [cGMP]
Km (PDE5): 5 µM | Kd (GAF domains of PDE5): 200 nM

CCCc1nn(C)c2c(=O)[nH]c(-c3cc(S(=O)(=O)N4CCN(C)CC4)ccc3OCC)nc12 [sildenafil]
competition with [^3H]cGMP for binding to the GAF domains of PDE5 (GAF domains of PDE5; even at high concentrations (Turko et al., 1999)): does not compete | inhibition of second peak of cGMP PDE activity [2]: not inhibited
